Measurements published in ChEMBL document CHEMBL4765340, “Novel potent antiplatelet thrombotic agent derived from biguanide for ischemic stroke” (Eur J Med Chem, 2020).

Tests used:
[1] = Inhibition of thrombin-stimulated human platelet aggregation by measuring aggregation at 0.50 mM measured after 2 hrs by scanning electron microscopy; assay type: functional; design: scale not given: the % may be the effect or the level left; conditions: dose 0.5 mM
[2] = Suppression of glycoprotein IIb/IIIa activation in thrombin-stimulated human platelets by measuring activated GPIIb/IIIa at 0.50 mM measured after 3 hrs by PAC-1-FITC dye based flow cytometry (reference value: 90.1%); assay type: functional; conditions: Platelet, at 0.5 mM
[3] = Toxicity against C57BL/6J mouse assessed as heart morphology at 200 mg/kg twice a day measured after 60 days; assay type: organism-based; conditions: in vivo, 1440 h, time 60 day
[4] = Toxicity against C57BL/6J mouse assessed as kidney morphology at 200 mg/kg twice a day measured after 60 days; assay type: organism-based; conditions: in vivo, 1440 h, time 60 day
[5] = Toxicity in calcein-labelled platelet-mediated ferric chloride-induced arterial injury thrombosis po dosed C57BL/6J mouse model assessed as change in prothrombin time treated twice a day measured upto 7 days; assay type: organism-based; conditions: in vivo, 168 h, time <=7 day
Mus musculus = assay: Antithrombotic activity in calcein-labelled platelet-mediated ferric chloride-induced arterial injury thrombosis C57BL/6J mouse model assessed as average time to occlusive thrombosis at 300 mg/kg, po administrated twice a day measured upto 7 days (reference value: 7.9 +/- 0.7 min); assay type: functional; conditions: time day <=7
[6] = Toxicity in C57BL/6J mouse assessed as change in calcium level at 200 mg/kg twice daily for 60 days relative to control; assay type: organism-based; conditions: in vivo, 1440 h, time 60 day
[7] = Toxicity in C57BL/6J mouse assessed as change in bicarbonate level at 200 mg/kg twice daily for 60 days relative to control; assay type: organism-based; conditions: in vivo, 1440 h, time 60 day
[8] = Toxicity in C57BL/6J mouse assessed as change in platelet ratio at 200 mg/kg twice daily for 60 days relative to control; assay type: organism-based; conditions: in vivo, 1440 h, time 60 day

SMILES: CN(C)C(=N)NC(=N)NS(=O)(=O)C(F)(F)F
- Activity [1]: 35%
- level, % of control at 500 µM [2]: 37.5%
- Activity [3]: Non-Toxic
- Activity [4]: Non-Toxic
- Activity [5]: Non-Toxic
- Time (Mus musculus): 22.1 min
- Activity [6]: Non-Toxic
- Activity [7]: Non-Toxic
- Activity [8]: Non-Toxic
